US20060052459A1, “Antifungal medicaments comprising arylamidine derivatives” (priority 2002, published 2006)
Like-named read-outs stand apart in the source and are kept apart here.

Assays:
[1] = system: Candida albicans strains IP 48.72 (ATCC 10231); assay: In vitro antifungal growth inhibition on microtitre plates (optical density 590 nm), compounds alone or as mixtures (Wadley method); type: cell-based; conditions: Candida albicans, ATCC10231, 48 h, 48 hours at 30° C.; for inhibition at 0.026 µg/mL: dose 0.026 μg/ml; for inhibition at 0.098 µg/mL: dose 0.098 μg/ml; for inhibition at 0.39 µg/mL: dose 0.39 μg/ml; for inhibition at 1.562 µg/mL: dose 1.562 μg/ml; for inhibition at 6.25 µg/mL: dose 6.25 μg/ml; for inhibition at 25 µg/mL: dose 25 μg/ml; for inhibition at 100 µg/mL: dose 100 μg/ml; for EC50: read-out: EC50
Method: (§1) The following fungi were used for this study: Candida albicans strains IP 48.72 (ATCC 10231) and Aspergillus fumigatus strain IP 864.64 obtained from the Collection Nationale de Cultures de Microorganismes (CNCM) of the Institut Pasteur. The strains are cultured on Yeast Extract-Peptone-Dextrose (YEPD) agar medium comprising 0.5% yeast extract, 0.5% bactopeptone, 2% glucose and 2% agar at 30° C. and in the dark.
(§2) All these compounds were prepared in a DMSO solution at a final concentration of 100 mg/ml. The stock solutions are stored at −20° C. up to the time of use.
(§3) The trials are carried out in RPMI 1640 medium with no sodium bicarbonate, but with L-glutamine buffered with 0.165 mol per litre of 3-[N-morpholino]propanesulphonic acid (MOPS), enriched (<>) or otherwise (<>) with 2% glucose. The pH of this medium is adjusted to 7.0. The medium is sterilized by filtration (0.22 μm) and stored at 4° C. up to the time of use.
(§4) All the antifungal tests are carried out on microtitre plates. The initial suspensions of spores are prepared in a sterile solution containing 0.85% NaCl, supplemented with Tween 80 at 0.01%. These initial suspensions are then diluted in the culture medium (RPMI 1640 enriched or otherwise with 2% glucose) to a final concentration of 10^4 spores per ml. The measurements of viability of each inoculum are verified by subcultures of a volume of 300 μl on YEPD agar medium.
(§5) The antifungal compounds are tested in a range of concentrations ranging from 0.026 to 100 μg of active ingredient/ml. These antifungal compounds are then diluted in RPMI 1640 medium enriched or otherwise with 2% glucose. A final DMSO concentration of 0.2% is used throughout the measurements. Each trial is carried out on a series of dilutions of antifungal compounds, in duplicate. The antifungal dilutions (0.1 ml) and the fungal inoculum (0.1 ml) are added to each of the wells of the microtitre plate. The plates are then read with a spectrophotometer (ELX 800UV Bio-Tek Instruments, Inc) at a wavelength of 590 nm. The plates are read immediately after (t=0) and after 48 hours' incubation at 30° C. and in the dark. The optical density values obtained are correlated with fungal growth between the times t=0 and t=48 hours. The optical density values are used to calculate the percentage inhibition of growth for each concentration of antifungals by comparison with the control. The values are then used to plot a dose-response curve and the EC50 value is determined for each fungus and each compound with the aid of the Grafit 5.0® software (Erithacus software Ltd).
(§6) The method which was used to measure the type of interaction existing between the antifungal compounds in the form of mixtures is the Wadley method.
(§7) In the Wadley approach, the dose-response curve for each of the compounds A and B, and for the mixture AB, is constructed. The EC50 is calculated for each compound taken individually and for the mixture. If a and b are the absolute quantities of the compounds A and B in the mixture (a=1, b=1, a+b=2 under our conditions), the expected effective concentration (EC50exp) may be calculated in the following manner: EC50exp=(a+b)/[a/EC50A)+b/(EC50B)
(§8) The Wadley approach may be used to estimate the type of interaction existing between the fungal compounds, regardless of their concentration. Its reliability is not dependent on the percentage inhibition. The type of interaction between two compounds is given by the level of interaction (LI) which corresponds to the ratio between the expected effective concentration (EC50exp) and that observed (EC50obs) of the mixture. The nature of the interaction obtained by the Wadley formula is presented in Table 1 (see U. Gisi, Synergistic interaction in fungicide mixtures, 1996. Phytopathology 86, 1273-1279) below.
(§9) The experimental conditions are the same as previously described.

[2] = system: Aspergillus fumigatus strain IP 864.64; assay: as above; type: cell-based; conditions: Aspergillus fumigatus, IP864.64, 48 h, 48 hours at 30° C.; for inhibition at 0.026 µg/mL: dose 0.026 μg/ml; for inhibition at 0.098 µg/mL: dose 0.098 μg/ml; for inhibition at 0.39 µg/mL: dose 0.39 μg/ml; for inhibition at 1.562 µg/mL: dose 1.562 μg/ml; for inhibition at 6.25 µg/mL: dose 6.25 μg/ml; for inhibition at 25 µg/mL: dose 25 μg/ml; for inhibition at 100 µg/mL: dose 100 μg/ml; for EC50: read-out: EC50
Method: as §1, §2, §3, §4, §5, §6, §7, §8, §9

[3] = minimal RPMI 1640 medium (MM), used alone
[4] = rich RPMI 1640 medium (RM), used alone

- EC50 [1, 3]: 0.022 µg/mL
- EC50 [1, 4]: 0.017 µg/mL
- EC50 ([1]; second study, strain IP 48.72, RPMI 1640 medium enriched with 2% glucose): 0.082 µg/mL
- EC50 [2, 3]: 0.27 µg/mL
- EC50 [2, 4]: 0.27 µg/mL
- EC50 ([2]; second study, strain IP 864.64, RPMI 1640 medium enriched with 2% glucose): 0.187 µg/mL
SMILES: CCC(C)n1ncn(-c2ccc(N3CCN(c4ccc(OCC5COC(Cn6cncn6)(c6ccc(Cl)cc6Cl)O5)cc4)CC3)cc2)c1=O (stereo not shown) [Compound II.2, itraconazole]
- inhibition at 0.026 µg/mL ([1]; minimal RPMI 1640 medium (MM)): 58.1%
- inhibition at 0.026 µg/mL ([1]; rich RPMI 1640 medium (RM)): 44.7%
- inhibition at 0.098 µg/mL ([1]; minimal RPMI 1640 medium (MM)): 75.4%
- inhibition at 0.098 µg/mL ([1]; rich RPMI 1640 medium (RM)): 85.1%
- inhibition at 0.39 µg/mL ([1]; minimal RPMI 1640 medium (MM)): 78.2%
- inhibition at 0.39 µg/mL ([1]; rich RPMI 1640 medium (RM)): 86.2%
- inhibition at 1.562 µg/mL ([1]; minimal RPMI 1640 medium (MM)): 74.6%
- inhibition at 1.562 µg/mL ([1]; rich RPMI 1640 medium (RM)): 85.1%
- inhibition at 6.25 µg/mL ([1]; minimal RPMI 1640 medium (MM)): 78.6%
- inhibition at 6.25 µg/mL ([1]; rich RPMI 1640 medium (RM)): 86.2%
- inhibition at 25 µg/mL ([1]; minimal RPMI 1640 medium (MM)): 87.9%
- inhibition at 25 µg/mL ([1]; rich RPMI 1640 medium (RM)): 95.2%
- inhibition at 100 µg/mL ([1]; minimal RPMI 1640 medium (MM)): 95.2%
- inhibition at 100 µg/mL ([1]; rich RPMI 1640 medium (RM)): 95.2%
- inhibition at 0.026 µg/mL ([2]; minimal RPMI 1640 medium (MM)): 2.2%
- inhibition at 0.026 µg/mL ([2]; rich RPMI 1640 medium (RM)): 18.6%
- inhibition at 0.098 µg/mL ([2]; minimal RPMI 1640 medium (MM)): 31.8%
- inhibition at 0.098 µg/mL ([2]; rich RPMI 1640 medium (RM)): 47.5%
- inhibition at 0.39 µg/mL ([2]; minimal RPMI 1640 medium (MM)): 49.3%
- inhibition at 0.39 µg/mL ([2]; rich RPMI 1640 medium (RM)): 88.6%
- inhibition at 1.562 µg/mL ([2]; minimal RPMI 1640 medium (MM)): 99.6%
- inhibition at 1.562 µg/mL ([2]; rich RPMI 1640 medium (RM)): 99.2%
- inhibition at 6.25 µg/mL ([2]; minimal RPMI 1640 medium (MM)): 100%
- inhibition at 6.25 µg/mL ([2]; rich RPMI 1640 medium (RM)): 100%
- inhibition at 25 µg/mL ([2]; minimal RPMI 1640 medium (MM)): 100%
- inhibition at 25 µg/mL ([2]; rich RPMI 1640 medium (RM)): 100%
- inhibition at 100 µg/mL ([2]; minimal RPMI 1640 medium (MM)): 99%
- inhibition at 100 µg/mL ([2]; rich RPMI 1640 medium (RM)): 100%
